The text below walks through data of patent US10647680B2, “Urea compound, preparation method therefor and medical use thereof” (Ancureall Pharmaceutical (Shanghai) Co., Ltd., priority 2016, dated 2020).

Test [1] concerns NCI-H1975 (EGFR L858R/T790M). In words: In vitro growth inhibition (GI50), NCI-H1975. It is filed as cell-based. The note with it: Homo sapiens. From the text:
(§1) Tumor cell line is an effective cell model for studying the inhibition of tumor cell growth or proliferation in vitro. In the present invention, a representative tumor cell line was selected to determine the cell growth inhibition activity of the present compound. All cell lines used were from ATCC, DSMZ, and the Cell Bank of the Chinese Academy of Sciences. Cell culture conditions and methods were in accordance with the requirements of each cell line. Cells were subcultured in vitro for no more than 3 passages each time, and as required, single-clone purification and identification of cell lines could be carried out.
(§2) The cell culture media used were RPMI1640 (Gibco), MEM (Gibco), McCOY'S5A (Gibco), and IMDM (Gibco). The complete medium was prepared by supplement with 5˜20% fetal calf serum (Gibco), 1% double-antibiotics (10000 units/mL penicillin and 10000 units/mL), 2 mM glutamine or 1 mM sodium pyruvate, respectively.
Human epidermal cancer cell line A431 (EGFR WT, amplification and high expression, from Shanghai Cell Bank of Chinese Academy of Sciences and ATCC), human lung cancer cell line NCI-H292 (EGFR WT, purchased from Shanghai Cell Bank of Chinese Academy of Sciences), NSCLC cell lines PC-9 and HCC827 (EGFR exon19 E746-A750 deletion, two cell lines are sensitive to the first-generation EGFR PTK inhibitor), NSCLC cell line NCI-H1975 (EGFR L858R/T790M and the first-generation EGFR inhibitor resistance, ATCC) were cultured with 1×RPMI1640 complete medium (supplement with 10% FBS), respectively.
(§3) Adherent cells were digested with 0.25% pancreatin-EDTA (Gibco). The suspension cells were collected by centrifugation. The supernatant was discarded and the cell pellet was resuspended and counted. Different cell concentrations (5˜10×10^4 cells/mL) were prepared according to the growth cycle of each cell line and then seeded on a 96-well plate (Corning), 100 μL/well. The cells were incubated overnight at 37° C., 5% CO2. The compounds were added to the cells on the second day with 2 wells in parallel. The final concentration of organic solvent shall not exceed 1%. The cells were continually incubated for 3 to 5 days, and then subjected to MTT assay.
(§4) The compound of the present invention and the control compound were dissolved in DMSO (Sigma) respectively, with the purity of more than 98%. The compound was stored in a concentration of 10 mM at −20° C. and diluted to 2- or 10-fold series prior to use.
(§5) Dojindo CCK8 reagent kit was used as MTT assay. THERMO […] FC meter was used as microplate reader.
(§6) For adherent cells, culture medium was removed and immediately replaced with the fresh prepared medium which contains 10% CCK8 reagent (100 μL/well). For the suspension cells, CCK8 was directly added to 10% of the final concentration. The cells were continually incubated for 1˜4 h. When a dark yellow color could be observed in the solvent control wells, the absorbance value at OD450 nm was measured and the cell growth rate was calculated according to the following formula: Cell Growth Rate (%)=100*(T−T0)/(C−T0) T=optical density of drug treatment cell well—optical density of blank control well; T0=optical density of cell well before drug treatment—optical density of blank control well; C=optical density of cell well of solvent control group—optical density of blank control well. The concentration value of 50% inhibition of cell growth (GI50) was calculated according to the drug concentration and cell growth rate curve. The experiment was independently repeated 1˜3 times, and subject to biological statistical analysis. 4. Experimental Results
Tumor cell growth inhibition test was performed by selecting representative compounds (compounds 4, 11, 12, 16, 27, 68, 71, 77, 79, 89 and 116 of the present invention). The initial concentration of the compound was 5,000 nM, then it was serially diluted by 2-fold or 10-fold to 0.01 nM. The GI50 value of each test compound was calculated according to the GI50 assay and calculation method. […]

Another test relates to AU565 (HER2/ErbB2 amp). The experiment in a line: In vitro growth inhibition (GI50), AU565. It is filed as cell-based. The conditions noted are these: Homo sapiens.
Source text: as §1, §2
Human gastric cancer cell line NCI-N87 (HER2/ErbB2 amp, ATCC), human breast cancer cell line HCC1954 (HER2/ErbB2 amp, ATCC) and ZR-75-30 (HER2/ErbB2 amp, ATCC), human adenocarcinoma cell line AU565 (HER2/ErbB2 amp, ATCC), human lung squamous cell carcinoma cell line NCI-H2170 (HER2/ErbB2 amp, ATCC), human bronchioalveolar adenocarcinoma cell line NCI-H1781 (HER2/ErbB2 Ins G776V,C mutant type, ATCC) were cultured with a 1×RPMI1640 complete medium (10% FBS), respectively. Human lung adenocarcinoma cell line Calu-3 (HER2/ErbB2 amp, ATCC) was cultured with 1×MEM, 10% FBS, 1% double antibody, 1% NEAA (Gibco), 2 mM glutamine and 1 mM sodium pyruvate. The human breast cancer cell line SK-BR-3 (HER2/ErbB2 amp, ATCC) was cultured with a McCOY'S5A complete medium (10% FBS).
as §3, §4, §5, §6
Tumor cell growth inhibition test was performed by selecting representative compounds (compounds 4, 11, 12, 16, 27, 68, 71, 77, 79, 89 and 116 of the present invention). […]

As to `CC(C)(C)c1cc(NC(=O)Nc2ccc(-n3cnc4cc(OCCN5CCOCC5)ccc43)cc2)[nH]n1` [Compound 89, 1-(5-tert-butyl-2H-pyrazol-3-yl)-3-{4-[5-(2-morpholin-4-yl-ethoxyl)-benzimidazol-1-yl]-phenyl}-urea], the GI50 (in test [1]; with AU565 (HER2/ErbB2 amp)) was more than 2500 nM each time.

Turning to `CC(C)(C)c1cc(NC(=O)Nc2ccc(-n3cnc4cc(O)ccc43)cc2)no1` [Compound 4, 1-(5-tert-butyl-isoxazol-3-yl)-3-[4-(5-hydroxy-benzimidazol-1-yl)-phenyl]-urea], the GI50 (in test [1]; in the test on AU565 (HER2/ErbB2 amp)) was more than 2500 nM each time.

Turning to `CC(C)(C)c1cc(NC(=O)Nc2ccc(-n3cnc4cc(OCCO)ccc43)cc2)no1` [Compound 11, 1-(5-tert-butyl-isoxazol-3-yl)-3-{4-[5-(2-hydroxy-ethoxyl)-benzimidazol-1-yl]-phenyl]-urea], the concentration for 50% growth inhibition (GI50) (in test [1]; with AU565 (HER2/ErbB2 amp)) was more than 2500 nM each time.

Consider `COCCOc1ccc2c(c1)ncn2-c1ccc(NC(=O)Nc2cc(C(C)(C)C)n[nH]2)cc1` [Compound 77, 1-(5-tert-butyl-2H-pyrazol-3-yl)-3-{4-[5-(2-methoxyl-ethoxyl)-benzimidazol-1-yl]-phenyl}-urea], for which the GI50 (in test [1]; in the test with AU565 (HER2/ErbB2 amp)) was more than 2500 nM throughout.

Regarding `CC(C)(C)c1cc(NC(=O)Nc2ccc(-n3cnc4ccccc43)cc2)[nH]n1` [Compound 68, 1-(4-benzimidazol-1-yl-phenyl)-3-(5-tert-butyl-2H-pyrazol-3-yl)-urea], the GI50 (in test [1]; in the test on AU565 (HER2/ErbB2 amp)) was more than 2500 nM each time.

Take `CC(C)(C)c1cc(N)n(C(=O)Nc2ccc(-n3cnc4ccccc43)cc2)n1` [Compound 116, 5-amino-3-tert-butyl-pyrazol-1-carboxylic acid (4-benzimidazol-1-yl-phenyl)-amide]: the GI50 (in test [1]; with AU565 (HER2/ErbB2 amp)) was more than 2500 nM in each case.

With `CC(C)(C)c1cc(NC(=O)Nc2ccc(-n3cnc4cc(OCCN5CCOCC5)ccc43)cc2)no1` [Compound 16, 1-(5-tert-butyl-isoxazol-3-yl)-3-{4-[5-(2-morpholin-4-yl-ethoxyl)-benzimidazol-1-yl]-phenyl}-urea], the GI50 (in test [1]; with AU565 (HER2/ErbB2 amp)) was more than 2500 nM throughout.

Consider `COc1ccc2c(c1)ncn2-c1ccc(NC(=O)Nc2cc(C(C)(C)C)n[nH]2)cc1` [Compound 71, 1-(5-tert-butyl-2H-pyrazol-3-yl)-3-[4-(5-methoxyl-benzimidazol-1-yl)-phenyl]-urea], for which the GI50 (in test [1]; in the test with AU565 (HER2/ErbB2 amp)) was more than 2500 nM throughout.

For `CC(C)(C)c1cc(NC(=O)Nc2ccc(-n3cnc4cc(OCCO)ccc43)cc2)[nH]n1` [Compound 79, 1-(5-tert-butyl-2H-pyrazol-3-yl)-3-{4-[5-(2-hydroxy-ethoxyl)-benzimidazol-1-yl]-phenyl]urea], the GI50 (in test [1]; with AU565 (HER2/ErbB2 amp)) was more than 2500 nM throughout.

For `CC(C)(C)c1cc(NC(=O)Nc2ccc(-n3cnc4ccc(OCCN5CCOCC5)cc43)cc2)no1` [Compound 27, 1-(5-tert-butyl-isoxazol-3-yl)-3-{4-[6-(2morpholin-4-yl-ethoxyl)-benzimidazol-1-yl]-phenyl}-urea], the GI50 (in test [1]; with AU565 (HER2/ErbB2 amp)) was more than 2500 nM in each case.
